From patent US11912755B2, “Endostatin fragments and variants for use in treating fibrosis” (iBio, Inc., priority 2015, dated 2024)

Legend:
[1] = system: human primary lung fibroblasts; settings: adenovirally-expressed endostatin; fibroblasts pretreated with TGF-β; cited from earlier work
[2] = system: patients with advanced solid tumors; settings: daily 1-hour intravenous infusion at doses up to 300 mg/m2; cited from earlier work
rabbit ear scar model = settings: in vivo; cited from earlier work
IPF model = settings: rat, in vivo; cited from earlier work
liver fibrosis model = settings: mouse, in vivo; cited from earlier work
[3] = system: diabetes/renal fibrosis model; settings: rat, in vivo; cited from earlier work
human skin explants = assay: Ex vivo human skin assay, dermal thickness; format: cell-based
Protocol: Ex vivo human skin assays. Human abdominal skin was obtained from corrective plastic surgery. As previously described (Yasuoka et al., The Open Rheumatol J 2008; 2:17-22), subcutaneous fat tissue was removed uniformly and skin tissue was cut into 1.5 cm×1.5 cm sections. The following were injected intradermally in a total volume of 100 μl 1×PBS: rE alone (1-10 μg/ml), endostatin peptides alone (10 μg/ml), rE or endostatin peptides (1-20 μg/ml) in combination with TGF-β (10 ng/ml), and TGF-β alone (10 ng/ml). In some experiments, human skin was first injected with TGF-β for 48 h followed by recombinant endostatin (rE) administration in the same injection site as TGF-β. Explants containing complete epidermal and dermal layers were cultured in an air liquid interface with the epidermal and keratin layers side up and exposed to air. The culture medium was replaced every other day. After 1 or 2 weeks, skin tissue corresponding to an area with 8-mm diameter centered around the injection site was harvested using disposable 8-mm ACUPUNCH® (Acuderm, Inc., Lauderdale, FL). Skin tissue was fixed in 10% formalin prior to embedding in paraffin.
(§1) Measurement of Skin Dermal Thickness. Six μm sections of paraffin-embedded human and mouse skin tissues were stained with hematoxylin and eosin (H&E). In some experiments, sections were stained with Masson trichrome which identifies collagens. Images were taken on a Nikon Eclipse 800 microscope. The thickness of the dermis was measured in 6 random fields of each section using the image/J® software. Data are shown in arbitrary units.

[4] = system: TGF-β-induced dermal fibrosis in mouse skin; assay: In vivo TGF-β-induced dermal fibrosis in mouse skin; settings: 10 μg/ml intradermal with TGF-β 10 ng/ml; one week
Protocol: In Vivo Mouse Experiments. CB57BL6/J male mice were purchased from The Jackson Laboratory (Bar Harbor, ME). Human rE (10 μg/ml) or Endostatin peptides (10 μg/ml) in combination with TGF-β (10 ng/ml), or TGF-β alone were injected intradermally on the back of mice in a total volume of 100 μl 1×PBS. Mice were injected in two different skin sites and sacrificed one week post-injection. Skin surrounding the injection site was harvested and fixed in 10% formalin prior to embedding in paraffin.
as §1
E4, a peptide representing the carboxy terminus of human endostatin, can attenuate fibrosis triggered by multiple fibrogenic factors. The anti-fibrotic effects of E4 can be detected whether administered concomitantly with or following the fibrogenic trigger. The efficacy of E4 was confirmed in […] pre-clinical models of fibrosis: a) bleomycin-induced dermal fibrosis in vivo in mouse skin, b) TGF-β induced dermal fibrosis in mouse skin, and c) bleomycin-induced pulmonary fibrosis. E4 peptide or a control peptide (E1; representing the amino terminal region of endostatin) were administered at the same time as TGF-β or bleomycin or 3-4 days following TGF-β or bleomycin. Mice were sacrificed one and two weeks after TGF-β-initiation of dermal fibrosis, and two and three weeks after bleomycin-induced pulmonary fibrosis. Two different modes of administration of the E4 peptide were also tested. It was confirmed that intraperitoneal and intratracheal administration was effective. The amount of E4 that was administered was 10 μg/ml in a total volume of 100 μl for skin and IP injections and 50 μl for IT administration.
For these studies, fibrosis was assessed by measurement of dermal thickness on H&E skin sections (skin), assessment of collagen levels by Masson Trichrome staining (skin and lung), and measurement of collagen levels by Sircol assay (lung). Furthermore, to confirm the mechanism by which E4 exerts its anti-fibrotic effects, the production of extra-cellular matrix (ECM) components, the levels of enzymes that promote matrix stabilization and thus accumulation and levels of those that degrade ECM components, and levels of transcription factors downstream of the pro-fibrotic triggers were evaluated. Results were assessed using the unpaired t test and the 3-way ANOVA (for the ID1 data).

[5] = system: TGF-β-induced dermal fibrosis in mouse skin; settings: single dose concurrently with TGF-β; cited from earlier work

## Endostatin
[1]
  FN and Col1α1 protein levels: endostatin markedly reduced
[2]
  tolerability: well tolerated
Rabbit ear scar model
  injury parameters: reversed injury parameters
IPF model
  injury parameters: reversed injury parameters
Liver fibrosis model
  injury parameters: reversed injury parameters
[3]
  injury parameters: reversed injury parameters

## E3: synthetic peptide, SEQ ID NO: 20, amino acids 133-180 of human endostatin (SYCETWRTEAPSATGQASSLLGGRLLGQSAASCHHAYIVLCIENSFMT; E3 amino acid sequence)
Human skin explants; injected alone, no TGF-β, rE 1, 5, 10 μg/ml, peptides 10 μg/ml
  dermal thickness, baseline effect: tendency towards reduction
Human skin explants; peptides 10 μg/ml with 10 ng/ml TGF-β, vs TGF-β alone
  development of fibrosis as measured by dermal thickness: significantly abolished
[4]
  TGF-β-induced dermal fibrosis (dermal thickness): prevented
[5]
  skin thickness: significantly decreased skin
